The test system of one assay is primary muscle cells. Briefly: Gene expression in wild type and PPARδ null primary muscle cells. The assay is classed as cell-based, mouse. The following applies: wild type vs PPARδ null cells.
A further assay concerns quadriceps muscle. Briefly: Real time quantitative PCR of gene expression in quadriceps muscle. The assay is classed as in vivo, mouse. The procedure: Animals were euthanized by carbon dioxide asphyxiation 72 hours after the final treatment. Gastrocnemius and quadriceps muscles were isolated, frozen and stored at −80° C. for future analysis. Total RNA was prepared from quadriceps muscle using TRIzoL™ reagent (Invitrogen, Carlsbad, Calif., USA) in conformance with manufacturer's instructions. Real time quantitative PCR (QPCR) was used to determine expression levels of uncoupling protein 3 (UCP3), muscle carnitine palmitoyl transferase I (mCPT I) and pyruvate dehydrogenase kinase 4 (PDK4) using primers known to those of ordinary skill in the art.
(§1) In addition to affecting the contractile apparatus of skeletal muscle, exercise training also increases skeletal muscle mitochondrial density (e.g., Freyssenet et al., Arch. Physiol. Biochem., 104(2): 129-141, 1996). […] Mice in all groups were acclimated to moderate treadmill running and basal running endurance was determined as described in Example 1. Thereafter, mice in the exercise-trained groups received four weeks (5 days/week) of exercise training on a treadmill inclined at 5 degrees. […] At the end of four weeks, all exercise-trained mice were running for 50 min/day at 18 m/min. […] Unless otherwise noted, V, GW, Tr and GW+Tr subjects described in this and the examples below were similarly treated. At the end of the drug treatment and/or training protocol (Week 5) 6 mice per group were subjected to the running test. […] RNA was prepared real time quantitative PCR performed as described in Example 1.

The test system of assay [1] is type I (slow oxidative) muscle fibers. Briefly: Meta-chromatic staining of gastrocnemius fiber types. The assay is classed as in vivo, mouse. The text has this: In this assay, muscle fibers with high ATPase activity {e.g., type I (slow oxidative) muscle fibers) are darkly stained.
The next assay has as its system AMPK. Briefly: Western blot of phospho-AMPK in quadriceps. The following applies: sedentary or trained muscles. In kind it is in vivo, mouse. The text has this:
Exercise training is known to activate kinases, such as p44/42 MAPK and AMPK, which regulate gene expression in skeletal muscle (Chen et al., Diabetes, 52:2205-12, 2003; Goodyear et al., Am. J. Physiol, 271:[…]-8, 1996). AMPK affects skeletal muscle gene expression and oxidative metabolism (Chen et al., Diabetes. 52: 2205-12, 2003, Reznick et al., J. Physiol. 574: 33-9, 2006). The interaction between exercise-regulated kinases and PPARδ signaling is described in this Example. The levels of phospho-p44/42 MAPK and phospho-AMPK a subunit and total AMPK were determined in protein homogenates of quadriceps muscle by Western blot. Antibodies specific for phospho-p44/42 MAPK, phospho- and total-AMPK αl antibodies were obtained from Cell Signaling. The phospho-specific AMPK αl antibody recognizes the key activating threonine in the activation loop.
Background: In western blotting, separated proteins are transferred to a membrane and probed.

The subject of assay [2] is myoglobin, UCP3, cytochrome c (CYCS) and SCDl. Briefly: Western blotting of oxidative biomarkers in quadriceps. The assay is classed as in vivo, mouse. The following applies: combined exercise and GW1516 vs either alone. The method, then: In addition to gene expression, protein expression was determined for selective oxidative biomarkers including myoglobin, UCP3, cytochrome c (CYCS) and SCDl, using Western blotting. Protein homogenates were prepared from quadriceps muscle, separated by SDS polyacrylamide gel electrophoresis, transferred to blotting membrane and probed with antibodies specific for myoglobin (Dako), UCP3 (Affinity Bioreagents), cytochrome c (Santacruz) SCDl (Santacruz), and, as a loading control, tubulin (Sigma).

The test system of another assay is myosin heavy chain (MHC). The assay is described as follows: Myosin heavy chain (MHC) expression. The assay is classed as in vivo, mouse. The method, then:
In addition to its effects on the fiber type, exercise training increased skeletal muscle mitochondrial biogenesis, which can be measured as a function of mitochondrial DNA expression levels using quantitative real time PCR (QPCR). Mitochondrial DNA expression levels were determined in muscles of V, GW, Tr, and GW+Tr subjects using quantitative real time PCR. […] Such an increase is known to contribute to enhanced endurance capacity (e.g., Holloszy, Med. Sci. Sports 7:155-64, 1975). Slow-twitch and fast-twitch muscle fiber types also can be distinguished by myosin isoform expression (Gauthier and Lowey, J. Cell Biol. 81:10-25, 1979; Fitzsimons and Hoh, Biochem. J. 193:229-33, 1981). […] Therefore, at least at the transcriptional level, the PPARδ agonist was capable of inducing some proteins characteristic of a slow-twitch muscle fiber phenotype.

The next assay concerns C57B/6J mice. Briefly: Treadmill running endurance test. The assay is classed as in vivo, mouse. The procedure:
Mice were acclimated to moderate treadmill running (10 m/min for 15 min) every other day for 1 week. After acclimation, basal running endurance was determined by placing each mouse on a treadmill, gradually increasing the speed from 0 to 15 m/min, and maintaining 15 m/min until the mouse was exhausted. The time and distance run until exhaustion were recorded as the basal endurance values (Week 0).
Treatments were administered orally.
Expression of biomarkers characteristic of an oxidative phenotype in skeletal muscle, typically, has been correlated with increased oxidative performance (e.g., increased running endurance) of such skeletal muscle. […] Accordingly, to determine the functional effects of ligand, age and weight matched cohorts of treated and control mice were subjected to an endurance treadmill performance test before (week 0) and after (week 5) treatment.
as §1
At the end of the drug treatment and/or training protocol (Week 5) 6 mice per group were subjected to the running test.
At the end of the drug treatment and/or training protocol (Week 5), running endurance of six mice per group was determined in the same manner as was basal running endurance. […] on three mice in each group to confirm that changes observed in the skeletal muscle were not due to the acute run, but were related to the exercise training.

[3] abbreviates: 4 weeks exercise training + GW1516, Week 5.

“Also recorded” adds a separate entry of the source.

Description for primary muscle cells: Primary muscle cells were isolated from wild type and PPARδ null mice as previously described (Rando and Blau, J. Cell. Biol. 125(6): 1275-87, 1994). […] RNA expression of UCP3, PDK4, LPL, and HSL was determined using real time quantitative PCR as described in Example 1.
To test this possibility, wild-type and PPARδ null primary muscle cells were used.

As to `Cc1cc(SCc2sc(-c3ccc(C(F)(F)F)cc3)nc2C)ccc1OCC(=O)O` [GW1516, (2-methyl-4(((4-methyl-2-(4-trifluoromethylphenyl)-1,3-thiazol-5-yl)methyl)sulfanyl)phenoxy)acetic acid], in the assay on primary muscle cells, the “induction of oxidative genes (UCP3, mCPT I, PDK4)” value was “mediated via activation of PPARδ”. Besides, in the assay on quadriceps muscle (2-5 mg/kg/day), the “earliest detection of changes in UCP3, mCPT I, PDK4 expression” value was found to be 4 days. The “expression of SCDl, FAS, SREBPIc, FAT/CD36, LPL” value in the assay with quadriceps muscle (GW1516 alone) was “no response”. Moreover, the “expression of UCP3, mCPT I, and PDK4” value in the assay on quadriceps muscle (GW1516 alone, four weeks, quadriceps) is reported as “induced; also recorded: upregulated”. Also, the “expression of SCDl, FAS, SREBPIc, FAT/CD36, LPL” value in the assay with quadriceps muscle (GW1516 combined with exercise) is “robustly induced”. In addition, the “expression of UCP3, mCPT I, and PDK4” value with quadriceps muscle (GW1516 with exercise vs GW1516 alone) is “no further induction”. Further, in assay [1] (GW1516 treatment and exercise training), the “number of type I muscle fibers in exercised muscle” value is given as “significantly increased”. The “proportion of type I muscle fibers vs vehicle” value in assay [1] (sedentary mice, gastrocnemius) is “no significant difference”. This compound gave an increase in proportion of type I fibers vs vehicle-treated sedentary mice in assay [1] (trained mice) of 38%. For the same compound, the “activation of AMPK” value with AMPK is listed as “failed to activate”. The “myoglobin, UCP3, cytochrome c, and SCDl protein expression” value in assay [2] is “robust up regulation”. In the assay with myosin heavy chain (MHC) (GW1516 combined with exercise), the “MHC I and MHC lib expression” value is recorded as “did not induce additional changes”. In addition, the “expression of MHC Ha” value with myosin heavy chain (MHC) (sedentary mice) was “did not alter”. Further, in the assay with myosin heavy chain (MHC) (sedentary mice vs vehicle), the “expression of MHC I” value is given as “increased” and the “expression of MHC lib” value was “decreased”. Also, in the assay on C57B/6J mice (setting [3]), the “increase in running distance over vehicle-treated trained mice” value was determined as 70% and the “increase in running time over vehicle-treated trained mice” value was 68%. Besides, the “run longer and further than nontreated controls” value in the assay with C57B/6J mice (combined with exercise training) is listed as 60%-75%. In addition, the “increment in endurance capacity, week 5 vs week 0” value with C57B/6J mice (exercise and drug treatment, individual mice) was found to be 100%. For the same compound, the “time spent or distance run on the treadmill prior to exhaustion vs controls” value in the assay on C57B/6J mice (sedentary mice, 5 mg/kg oral once per day, 4 weeks) is listed as “did not significantly differ”. For the same compound, the running endurance result in the assay on C57B/6J mice (sedentary mice, long-term treatment up to 5 months) was “did not change”.

The values above are taken from patent publication US9192601B2, “Methods for enhancing muscle performance and tone” (Salk Institute for Biological Studies, priority 2006, dated 2015).
